#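 Method: 48-hour compound exposure of cells in 96-well plates, five concentrations, linear interpolation of endpoints. At the GI50, growth is halved. At the TGI there is no net growth.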
# What was measured:
# Experiment in all cases: NCI tumour cell line growth inhibition, 48 h
# TK-10 renal = test system: TK-10 renal
# UO-31 renal = test system: UO-31 renal
# NCI-H460 lung = test system: NCI-H460 lung
# NCI-H226 lung = test system: NCI-H226 lung
# SNB-19 CNS = test system: SNB-19 CNS
# K-562 leukemia = test system: K-562 leukemia
# M14 melanoma = test system: M14 melanoma
# T-47D breast = test system: T-47D breast
# NCI-H522 lung = test system: NCI-H522 lung
# SK-MEL-28 melanoma = test system: SK-MEL-28 melanoma
# MDA-MB-231 breast = test system: MDA-MB-231 breast
# ACHN renal = test system: ACHN renal
# LOX IMVI melanoma = test system: LOX IMVI melanoma
# MDA-MB-468 breast = test system: MDA-MB-468 breast
# NCI/ADR-RES ovarian = test system: NCI/ADR-RES ovarian
# HOP-62 NSCLC = test system: HOP-62 NSCLC
# SF-539 CNS = test system: SF-539 CNS
# CAKI-1 renal = test system: CAKI-1 renal
# HCC-2998 colon = test system: HCC-2998 colon
# EKVX NSCLC = test system: EKVX NSCLC
# U251 CNS = test system: U251 CNS
# MDA-MB-435 = test system: MDA-MB-435
# SK-OV-3 ovarian = test system: SK-OV-3 ovarian
# IGROV1 ovarian = test system: IGROV1 ovarian
# 786-0 renal = test system: 786-0 renal
# A549 NSCLC = test system: A549 NSCLC
# HT29 colon = test system: HT29 colon
# SF-295 CNS = test system: SF-295 CNS
# HCT-15 colon = test system: HCT-15 colon
# OVCAR-8 ovarian = test system: OVCAR-8 ovarian
# RXF 393 renal = test system: RXF 393 renal
# A498 renal = test system: A498 renal
# NCI-H23 lung = test system: NCI-H23 lung
# MOLT-4 leukemia = test system: MOLT-4 leukemia
# KM12 colon = test system: KM12 colon
# MALME-3M melanoma = test system: MALME-3M melanoma
# SK-MEL-2 melanoma = test system: SK-MEL-2 melanoma
# HOP-92 NSCLC = test system: HOP-92 NSCLC
# SW-620 colon = test system: SW-620 colon
# MCF7 breast = test system: MCF7 breast
# HCT-116 colon = test system: HCT-116 colon
# HS 578T breast = test system: HS 578T breast
# COLO 205 colon = test system: COLO 205 colon
# UACC-62 melanoma = test system: UACC-62 melanoma
# UACC-257 melanoma = test system: UACC-257 melanoma
# OVCAR-3 ovarian = test system: OVCAR-3 ovarian
# SR leukemia = test system: SR leukemia
# SNB-75 CNS = test system: SNB-75 CNS
# SN12C renal = test system: SN12C renal
# CCRF-CEM leukemia = test system: CCRF-CEM leukemia
# HL-60(TB) leukemia = test system: HL-60(TB) leukemia
# OVCAR-4 ovarian = test system: OVCAR-4 ovarian
# OVCAR-5 ovarian = test system: OVCAR-5 ovarian
# DU-145 prostate = test system: DU-145 prostate
# PC-3 prostate = test system: PC-3 prostate
# BT-549 breast = test system: BT-549 breast
# SK-MEL-5 melanoma = test system: SK-MEL-5 melanoma
# SF-268 CNS = test system: SF-268 CNS
smiles,measurement,setting,value
O=C(NCCCCC(c1ccc(F)cc1)c1ccc(F)cc1)Nc1ccc([N+](=O)[O-])c(C(F)(F)F)c1,GI50,TK-10 renal,2.94 µM
same,TGI,TK-10 renal,10.9 µM
same,GI50,UO-31 renal,1.82 µM
same,TGI,UO-31 renal,7.43 µM
same,GI50,NCI-H460 lung,1.61 µM
same,TGI,NCI-H460 lung,5.54 µM
same,GI50,NCI-H226 lung,2.16 µM
same,TGI,NCI-H226 lung,6.55 µM
same,GI50,SNB-19 CNS,2.91 µM
same,TGI,SNB-19 CNS,16.1 µM
same,GI50,K-562 leukemia,0.561 µM
same,TGI,K-562 leukemia,> 100 µM
same,GI50,M14 melanoma,2.08 µM
same,TGI,M14 melanoma,6.63 µM
same,GI50,T-47D breast,1.85 µM
same,TGI,T-47D breast,6.93 µM
same,GI50,NCI-H522 lung,1.74 µM
same,TGI,NCI-H522 lung,5.17 µM
same,GI50,SK-MEL-28 melanoma,3.03 µM
same,TGI,SK-MEL-28 melanoma,11.5 µM
same,GI50,MDA-MB-231 breast,1.82 µM
same,TGI,MDA-MB-231 breast,3.72 µM
same,GI50,ACHN renal,1.63 µM
same,TGI,ACHN renal,6.81 µM
same,GI50,LOX IMVI melanoma,1.69 µM
same,TGI,LOX IMVI melanoma,3.37 µM
same,GI50,MDA-MB-468 breast,0.559 µM
same,TGI,MDA-MB-468 breast,3.08 µM
same,GI50,NCI/ADR-RES ovarian,2.36 µM
same,TGI,NCI/ADR-RES ovarian,8.68 µM
same,GI50,HOP-62 NSCLC,1.99 µM
same,TGI,HOP-62 NSCLC,4.62 µM
same,GI50,SF-539 CNS,1.92 µM
same,TGI,SF-539 CNS,4.01 µM
same,GI50,CAKI-1 renal,2.07 µM
same,TGI,CAKI-1 renal,6.5 µM
same,GI50,HCC-2998 colon,2.61 µM
same,TGI,HCC-2998 colon,11.5 µM
same,GI50,EKVX NSCLC,2.3 µM
same,TGI,EKVX NSCLC,8.53 µM
same,GI50,U251 CNS,2.2 µM
same,TGI,U251 CNS,5.98 µM
same,GI50,MDA-MB-435,2.15 µM
same,TGI,MDA-MB-435,7.58 µM
same,GI50,SK-OV-3 ovarian,2.26 µM
same,TGI,SK-OV-3 ovarian,6.05 µM
same,GI50,IGROV1 ovarian,2.71 µM
same,TGI,IGROV1 ovarian,12.5 µM
same,GI50,786-0 renal,2.26 µM
same,TGI,786-0 renal,8.86 µM
same,GI50,A549 NSCLC,3.19 µM
same,TGI,A549 NSCLC,12.6 µM
same,GI50,HT29 colon,3.22 µM
same,TGI,HT29 colon,13.4 µM
same,GI50,SF-295 CNS,0.972 µM
same,TGI,SF-295 CNS,3.73 µM
same,GI50,HCT-15 colon,1.8 µM
same,TGI,HCT-15 colon,6.63 µM
same,GI50,OVCAR-8 ovarian,3.24 µM
same,TGI,OVCAR-8 ovarian,16 µM
same,GI50,RXF 393 renal,2.23 µM
same,TGI,RXF 393 renal,6.25 µM
same,GI50,A498 renal,1.84 µM
same,TGI,A498 renal,5.51 µM
same,GI50,NCI-H23 lung,2.27 µM
same,TGI,NCI-H23 lung,8.51 µM
same,GI50,MOLT-4 leukemia,2.81 µM
same,TGI,MOLT-4 leukemia,> 100 µM
same,GI50,KM12 colon,2.07 µM
same,TGI,KM12 colon,7.77 µM
same,GI50,MALME-3M melanoma,1.84 µM
same,TGI,MALME-3M melanoma,4.64 µM
same,GI50,SK-MEL-2 melanoma,1.92 µM
same,TGI,SK-MEL-2 melanoma,4.07 µM
same,GI50,HOP-92 NSCLC,1.03 µM
same,TGI,HOP-92 NSCLC,5.11 µM
same,GI50,SW-620 colon,2.26 µM
same,TGI,SW-620 colon,10.9 µM
same,GI50,MCF7 breast,2.14 µM
same,TGI,MCF7 breast,10.1 µM
same,GI50,HCT-116 colon,0.521 µM
same,TGI,HCT-116 colon,2.81 µM
same,GI50,HS 578T breast,2.22 µM
same,TGI,HS 578T breast,6.22 µM
same,GI50,COLO 205 colon,1.73 µM
same,TGI,COLO 205 colon,3.24 µM
same,GI50,UACC-62 melanoma,1.33 µM
same,TGI,UACC-62 melanoma,2.84 µM
same,GI50,UACC-257 melanoma,2.48 µM
same,TGI,UACC-257 melanoma,7.97 µM
same,GI50,OVCAR-3 ovarian,1.52 µM
same,TGI,OVCAR-3 ovarian,5.31 µM
same,GI50,SR leukemia,2.97 µM
same,TGI,SR leukemia,> 100 µM
same,GI50,SNB-75 CNS,1.65 µM
same,TGI,SNB-75 CNS,7.64 µM
same,GI50,SN12C renal,1.98 µM
same,TGI,SN12C renal,6.52 µM
same,GI50,CCRF-CEM leukemia,0.674 µM
same,TGI,CCRF-CEM leukemia,8.27 µM
same,GI50,HL-60(TB) leukemia,3.19 µM
same,TGI,HL-60(TB) leukemia,> 100 µM
same,GI50,OVCAR-4 ovarian,2.81 µM
same,TGI,OVCAR-4 ovarian,15.8 µM
same,GI50,OVCAR-5 ovarian,2.28 µM
same,TGI,OVCAR-5 ovarian,7.89 µM
same,GI50,DU-145 prostate,3.53 µM
same,TGI,DU-145 prostate,15.7 µM
same,GI50,PC-3 prostate,0.415 µM
same,TGI,PC-3 prostate,8.72 µM
same,GI50,BT-549 breast,1.86 µM
same,TGI,BT-549 breast,4.23 µM
same,GI50,SK-MEL-5 melanoma,1.59 µM
same,TGI,SK-MEL-5 melanoma,2.97 µM
same,GI50,SF-268 CNS,2.92 µM
same,TGI,SF-268 CNS,12.4 µM

# Reference: PubChem BioAssay (NCI)
